In ChEMBL document CHEMBL1201862, “PubChem BioAssay data set” (2004):
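How tested: cells in 96-well plates exposed to compound for 48 hours at five concentrations. Here, GI50 denotes the concentration required for 50% inhibition of growth.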 Active and inactive are the calls of the source. Cut-off read from the data, not from the text of the source: active = GI50 up to about 1.1 µM and inactive = higher.

Experiments:
Test in all cases: growth of human tumour cells (NCI), 48 h
CAKI-1 = tested on: CAKI-1
HT-29 = tested on: HT-29
MDA-MB-435 = tested on: MDA-MB-435
UACC-62 = tested on: UACC-62
SF-295 = tested on: SF-295
SNB-75 = tested on: SNB-75
MDA-N = tested on: MDA-N
MDA-MB-231 = tested on: MDA-MB-231
RXF 393 = tested on: RXF 393
MCF7 = tested on: MCF7
OVCAR-4 = tested on: OVCAR-4
K562 = tested on: K562
HCT-15 = tested on: HCT-15
HL-60 = tested on: HL-60
786-0 = tested on: 786-0
SN12C = tested on: SN12C
BT-549 = tested on: BT-549
NCI-H226 = tested on: NCI-H226
LOX IMVI = tested on: LOX IMVI

COc1cc2c(=O)cnoc2cc1O
GI50 (CAKI-1): > 100 µM (inactive) | GI50 (HT-29): > 100 µM (inactive) | GI50 (MDA-MB-435): > 100 µM (inactive) | GI50 (UACC-62): > 100 µM (inactive) | GI50 (SF-295): > 100 µM (inactive) | GI50 (SNB-75): > 100 µM (inactive) | GI50 (MDA-N): > 100 µM (inactive) | GI50 (MDA-MB-231): > 100 µM (inactive) | GI50 (RXF 393): > 100 µM (inactive) | GI50 (MCF7): > 100 µM (inactive) | GI50 (OVCAR-4): > 100 µM (inactive) | GI50 (K562): > 100 µM (inactive) | GI50 (HCT-15): > 100 µM | GI50 (HL-60): > 100 µM (inactive) | GI50 (786-0): > 100 µM (inactive) | GI50 (SN12C): > 100 µM (inactive) | GI50 (BT-549): > 100 µM (inactive) | GI50 (NCI-H226): > 100 µM (inactive)

Cc1[nH]c(-c2ccccc2)c(-c2ccc(Cl)cc2)c1C(=O)ONC(=O)c1ccccc1
GI50 (CAKI-1): 2.44 µM (inactive) | GI50 (HT-29): 4.6 µM (inactive) | GI50 (MDA-MB-435): 2.47 µM (inactive) | GI50 (UACC-62): 10.1 µM (inactive) | GI50 (LOX IMVI): 1.39 µM (inactive) | GI50 (SF-295): 2.1 µM (inactive) | GI50 (SNB-75): 3.56 µM (inactive) | GI50 (MDA-N): 2 µM (inactive) | GI50 (MDA-MB-231): 3.64 µM (inactive) | GI50 (RXF 393): 2.12 µM (inactive) | GI50 (MCF7): 11.9 µM (inactive) | GI50 (OVCAR-4): 2.62 µM (inactive) | GI50 (K562): 2.65 µM (inactive) | GI50 (HCT-15): 6.17 µM | GI50 (HL-60): 1.5 µM (inactive) | GI50 (786-0): 1.9 µM (inactive) | GI50 (SN12C): 2.25 µM (inactive) | GI50 (BT-549): 2.56 µM (inactive) | GI50 (NCI-H226): 3.61 µM (inactive)

OC(O)(C(F)(F)F)C(F)(F)F
GI50 (CAKI-1): > 100 µM (inactive) | GI50 (HT-29): > 100 µM (inactive) | GI50 (MDA-MB-435): > 100 µM (inactive) | GI50 (UACC-62): > 100 µM (inactive) | GI50 (LOX IMVI): > 100 µM (inactive) | GI50 (SF-295): > 100 µM (inactive) | GI50 (SNB-75): > 100 µM (inactive) | GI50 (MDA-N): > 100 µM (inactive) | GI50 (MDA-MB-231): > 100 µM (inactive) | GI50 (RXF 393): > 100 µM (inactive) | GI50 (MCF7): > 100 µM (inactive) | GI50 (OVCAR-4): > 100 µM (inactive) | GI50 (K562): > 100 µM (inactive) | GI50 (HCT-15): > 100 µM | GI50 (HL-60): > 100 µM (inactive) | GI50 (786-0): > 100 µM (inactive) | GI50 (SN12C): > 100 µM (inactive) | GI50 (BT-549): > 100 µM (inactive) | GI50 (NCI-H226): > 100 µM (inactive)

CCCc1cc(=O)oc2c3c(c4c(c12)OC(C)(C)C=C4)O[C@@H](C)[C@H](C)C3=O
GI50 (CAKI-1): 28.9 µM (inactive) | GI50 (HT-29): 8.71 µM (inactive) | GI50 (MDA-MB-435): 21.9 µM (inactive) | GI50 (LOX IMVI): 18.7 µM (inactive) | GI50 (SF-295): 16.6 µM (inactive) | GI50 (SNB-75): 13.6 µM (inactive) | GI50 (MDA-N): 17.3 µM (inactive) | GI50 (MDA-MB-231): 11.8 µM (inactive) | GI50 (RXF 393): > 10 µM (inactive) | GI50 (MCF7): 17.6 µM (inactive) | GI50 (K562): 6.46 µM (inactive) | GI50 (HCT-15): 15 µM | GI50 (HL-60): 4.99 µM (inactive) | GI50 (786-0): 16.9 µM (inactive) | GI50 (SN12C): 18.7 µM (inactive) | GI50 (BT-549): 13.7 µM (inactive) | GI50 (NCI-H226): 18.2 µM (inactive)

NS(=O)(=O)c1ccc(Nc2c3ccccc3nc3c(C(=O)NC(CO)(CO)CO)cccc23)cc1
GI50 (CAKI-1): 0.218 µM (active) | GI50 (HT-29): 0.184 µM (active) | GI50 (MDA-MB-435): 0.212 µM (active) | GI50 (UACC-62): 0.138 µM (active) | GI50 (LOX IMVI): 0.132 µM (active) | GI50 (SF-295): 0.294 µM (active) | GI50 (MDA-N): 0.272 µM (active) | GI50 (MDA-MB-231): 0.195 µM (active) | GI50 (RXF 393): 0.185 µM (active) | GI50 (MCF7): 0.0143 µM (active) | GI50 (OVCAR-4): 0.0598 µM (active) | GI50 (K562): 0.19 µM (active) | GI50 (HCT-15): 0.282 µM | GI50 (HL-60): 0.21 µM (active) | GI50 (786-0): 0.0201 µM (active) | GI50 (SN12C): 0.199 µM (active) | GI50 (BT-549): 0.126 µM (active) | GI50 (NCI-H226): 0.136 µM (active)

CC(=O)NC1=CC(=O)c2cc(C)cc(O)c2C1=O
GI50 (CAKI-1): 17.8 µM (inactive) | GI50 (HT-29): 16.9 µM (inactive) | GI50 (MDA-MB-435): 0.721 µM (active) | GI50 (UACC-62): 2.02 µM (inactive) | GI50 (LOX IMVI): 1.53 µM (inactive) | GI50 (SF-295): 19.2 µM (inactive) | GI50 (SNB-75): 18.7 µM (inactive) | GI50 (MDA-N): 1.53 µM (inactive) | GI50 (MDA-MB-231): 7.19 µM (inactive) | GI50 (RXF 393): 12.5 µM (inactive) | GI50 (MCF7): 2.39 µM (inactive) | GI50 (OVCAR-4): 8.49 µM (inactive) | GI50 (K562): 3.74 µM (inactive) | GI50 (HCT-15): 2.88 µM | GI50 (HL-60): 1.88 µM (inactive) | GI50 (786-0): 13.7 µM (inactive) | GI50 (SN12C): 5.09 µM (inactive) | GI50 (BT-549): 7.06 µM (inactive) | GI50 (NCI-H226): 19.8 µM (inactive)

CC(=O)O[C@H]1C(=O)[C@@]2(C)[C@H]([C@H](OC(=O)c3ccccc3)[C@]3(O)C[C@H](OC(=O)[C@H](OC(=O)OCCC(O)CO)[C@@H](NC(=O)c4ccccc4)c4ccccc4)C(C)=C1C3(C)C)[C@]1(OC(C)=O)CO[C@@H]1C[C@@H]2O (some centres undefined)
GI50 (CAKI-1): 0.631 µM (active) | GI50 (HT-29): < 0.01 µM (active) | GI50 (MDA-MB-435): < 0.01 µM (active) | GI50 (UACC-62): < 0.01 µM (active) | GI50 (LOX IMVI): < 0.01 µM (active) | GI50 (SF-295): 0.0192 µM (active) | GI50 (SNB-75): < 0.0114 µM (active) | GI50 (MDA-N): < 0.01 µM (active) | GI50 (MDA-MB-231): < 0.0135 µM (active) | GI50 (RXF 393): < 0.037 µM (active) | GI50 (MCF7): < 0.01 µM (active) | GI50 (OVCAR-4): 17.4 µM (inactive) | GI50 (K562): < 0.01 µM (active) | GI50 (HCT-15): 0.303 µM | GI50 (HL-60): < 0.01 µM (active) | GI50 (786-0): 0.0105 µM (active) | GI50 (SN12C): < 0.01 µM (active) | GI50 (BT-549): < 0.0159 µM (active) | GI50 (NCI-H226): < 0.01 µM (active)
